Laboratory results as given in patent publication US11564913B2, “Compositions and methods for treating cancer” (Children's Hospital Medical Center, priority 2019, dated 2023).

Assays:
[1] = system: BCR-ABL1-transformed Ba/F3 cells; assay: Colony formation assay in soft agar; format: cell-based, murine; conditions: 1 or 10 μM
Method: (B) IODVA1-dependent survival curves of empty vector (red circles) or p190-BCR-ABL1 (black circles) expressing Ba/F3 cells and of Nalm-1 cells. […] (C) p190-BCR-ABL1 (grey line) or Mieg3 (black line) expressing Ba/F3 cells were allowed to grow for 1 day, treated with IODVA1 (IO1, 1 μM) for 1 day, and washed (black arrow). Cells were counted for 7 days using trypan blue exclusion. (D) Ba/F3 cells stably expressing p190-BCR-ABL1 were subjected to colony formation assay in soft agar (0.25% Noble Agar in RPMI/FBS/IL-3) in the presence of DMSO or IODVA1 (1 or 10 μM). Colonies were allowed to form for 10 days then stained with iodonitrotetrazolium (1 mg/mL). Data are representative of at least three independent experiments in triplicates. Note the smaller colony size in 1 μM IODVA1 treatment group. (E) Leukemic burden (%) of treated mice before treatment (left upper panel) and at the indicated treatment time was analyzed by flow cytometry of bone marrow aspirates as population containing B220^+/CD43^+ pro-B cells. (F) Count (%) of residual leukemic (EGFP^+-BCR-ABL1) cells in peripheral blood at weeks 3 and 5 for the secondary transplant mice from FIG. 1D. […]
IODVA1 specifically targets BCR-ABL B-ALL cells in vitro. […] We then assessed survival of p190-BCR-ABL-transformed CD34^+ cells in the presence of IODVA1 by trypan blue exclusion. […]

[2] = system: murine p190-BCR-ABL leukemic progenitor cells (EGFP+/B220dim); assay: Cell cycle analysis, BrdU incorporation and flow cytometry; format: cell-based; conditions: for percentage of cells in the G2+M phases: 20 h (SD, N=3)
Method: FIG. 13: IODVA1 decreases Rac activation and signaling. (A) Ba/F3 cells expressing p190-BCR-ABL1 were treated with IODVA1 (3 μM) as indicated and levels of active Rac (Rac-GTP) were assessed by pull-down using GST-PAK-GBD, followed by immunoblotting (upper panel) and densitometric quantification (lower panel). (B) Flow-cytometry analysis of pJNK, pS6, p4EBP, pPAK1, and pAKT of Ba/F3 cells expressing Mieg3 empty vector (light and dark blue) or p190-BCR-ABL1 (light and dark salmon) and treated with vehicle control or IODVA1 (3 μM) for 30 min. (C) Representative histogram data of the cell cycle analysis of Ba/F3 cells expressing p190-BCR-ABL and treated with vehicle control or IODVA1 (1, 3, and 10 μM) for 20 h. (D) Quantification of the average number of colonies of bone marrow wild-type (black) and Rac1^Δ/Δ+Rac2^−/− (red) p190-BCR-ABL1 leukemic cells treated with vehicle control or IODVA1 (IO1, 1 μM). ns—not significant, * p<0.05, ** p<0.01, *** p<0.001. (E) As in FIG. 13A, but cells were incubated for a fixed amount of time (1 h) at the indicated IODVA1 concentrations. (F) Ba/F3 cells expressing p190-BCR-ABL1 were treated with IODVA1 (3 μM) and lysed at the indicated times. Cell lysates were separated on SDS-PAGE and immunoblotted for pPAK(T423), pBAD(S136), and BAD. (G) Ba/F3 cells expressing p190-BCR-ABL1 were treated with IODVA1 (3 μM) and levels of active Cdc42 (Cdc42-GTP) and Rho (Rho-GTP) were assessed by pull-down at the indicated times using GST-PAK-GBD and GST-Rhotekin respectively, followed by immunoblotting (left panel) and densitometric quantification (right panel). (H) Morphology of GFP^+ leukemic colonies (left panel). Western blot analysis of Rac1 and Rac2 protein expression in Rac1^Δ/Δ+Rac2^−/− cells post poly-I:C injections (right panel). (I) Intrinsic (blue line) and p50GAP-stimulated GTP-hydrolysis reaction in the presence (red line) or absence (black line) of IODVA1. (J) Sedimentation assay of liposomal Rac1-GDP in the presence of IODVA1 (2 μM). Rac1 was visualized by immunoblotting from pellet (p) and soluble (s) fractions. (K) Stopped-flow measurement of GDI (10 μM) interaction with fluorescently-labelled Rac1 in the absence (black line) or presence (orange line) of IODVA1.
To further test this hypothesis, we analyzed the cell cycle of murine p190-BCR-ABL leukemic progenitor cells (EGFP^+/B220^dim) incubated with vehicle control or IODVA1 (1-10 μM) for 20 h, followed by in vitro BrdU incorporation and flow cytometry analysis (FIG. 13C). […] It increased the percentage of cells in the G2+M phases from 7±1% (SD, N=3) in the presence of vehicle control to 22±6.6, 32±3, and 36±7% (SD, N=3) at 1, 3, and 10 μM, respectively. At 1 μM, it reduced the S-phase 8-fold (p=0.0002) and increased apoptosis by at least 5.3-times (p=0.007). Therefore, IODVA1 induces a G2/M arrest.
Cell cycle was analyzed by using in vitro incorporation of 5-Bromo-2-deoxyuridine using Brdu Flow kit (BD Pharmingen, Cat #552598). Briefly, mice leukemic progenitors were incubated with […] BrdU solution for 45 minutes, cells were further fixed and permeabilized. DNAse treatment was done according to the instructions and stained with anti BrdU and apoptosis was analyzed by 7-AAD staining through flow cytometry analysis.

Which “clonogenic ability in soft agar” value [1] does the source give for `OC1(c2ccccn2)N=C(Nc2nc3ccccc3[nH]2)N=C1c1ccccn1` (stereo not shown) [IODVA1, (Z)-2-((1H-benzo[d]imidazol-2-yl)imino)-4,5-di(pyridin-2-yl)-2,5-dihydro-1H-imidazol-5-ol] here?
The value was “inhibits”.

What about the “percentage of cells in the G2+M phases” value ([2]; 1 μM, vehicle 7±1%) of the same molecule?
Its value is 22±6.6%.

What about the “reduction of the S-phase” value ([2]; 1 μM, p=0.0002) of the same molecule?
Its value is 8 fold.

And the increase in apoptosis ([2]; 1 μM, p=0.007)?
The increase in apoptosis was “at least 5.3 times”.

What about the “percentage of cells in the G2+M phases” value ([2]; 3 μM) of the same molecule?
Its value is 32±3%.

What about the “percentage of cells in the G2+M phases” value ([2]; 10 μM) of the same molecule?
The value was 36±7%.

What about the “G0+G1 phase” value ([2]; 1-10 μM, 20 h) of the same molecule?
Its value is “did not affect”.
